The record followed here is publication PMC13316043, “Structural basis of NSD2 degradation via targeted recruitment of SCF-FBXO22” (Nature Communications, 2026).

The structures appear in SMILES notation.

The test has as its system His-tagged NSD2 PWWP1. Kind of test: TR-FRET cooperativity (competition) assay: displacement of biotinylated NSD2 ligand UNC7096. Format: binding, human. From the text: Because of the direct interactions observed between FBXO22 and NSD2, we hypothesized that some degree of cooperative binding could facilitate complex stabilization. Therefore, we developed a TR-FRET assay to monitor the interaction between his-tagged NSD2 and a biotinylated NSD2 ligand, UNC7096, that is missing the modality for FBXO22-recruitment (Supplementary Fig. 3D)[20]. Given the positive FRET signal observed when both NSD2 PWWP1 and UNC7096 are present, we used this setup to evaluate the displacement of UNC7096 by UNC10088 in the presence or absence of the FBXO22 FIST domain (Supplementary Fig. 3D). […] Importantly, this FBXO22-dependent enhancement of NSD2 antagonism by UNC10088 was absent when C326 was substituted for alanine (Supplementary Fig. 3F). Taken together, the SCF^FBXO22-NSD2 PWWP1 structure both confirms prior results and provides additional insight into the surfaces that contribute to a cooperative interaction between NSD2 and FBXO22 to promote potent NSD2 polyubiquitination and degradation.
The TR-FRET assay was adapted to assess cooperativity from the following workflows previously reported[39],[40]. Assays were performed in white, low-volume, flat-bottom, nonbinding 384-well microplates (Greiner, Catalog No. 784904) with a final assay volume of 10 μL per well. The assay buffer contained 20 mM Tris–HCl (pH 7.5) and 150mM NaCl, 0.05% Tween-20 (v/v), 2mM DTT, and 1% DMSO (v/v). LANCE Europium (Eu)-W8044 Streptavidin conjugate (2 nM) and LANCE Ultra ULight-anti6x-His labeled antibodies (10 nM) were used as donor and acceptor fluorophores associated with the tracer ligand and protein, respectively. Final assay concentrations of 63 nM His-tagged NSD2 PWWP1 and 31 nM of UNC7096 (a biotinylated version of the NSD2 ligand) as a tracer ligand were used for compound testing. UNC8732, UNC10088, and UNC10415667 were diluted in a 10-point, 3-fold serial dilution, and indicated compounds were pre-incubated with FBXO22 FIST for 30 min. A master mix of NSD2 PWWP1, UNC7096, and TR-FRET reagents was made prior to its addition to the compounds and/or FBXO22 FIST. The plates were sealed with metallic covers, mixed gently for 1 min, and incubated in the dark for 1 h. After 1 h, the plate was read on an EnVision 2103 plate reader with a 320 nm excitation filter and 615 nm/ 665 nm emission filters simultaneously with a dual mirror D400/D630 and a 100 μs delay. […] Raw TR-FRET signals were normalized to a high inhibition control (10 μM of UNC10088) and negative control (1% DMSO). The normalized TR-FRET signals were plotted against the compound concentrations. […] Ki values were calculated from the IC50s using the tight-binding model[41],[42]. The cooperativity factor (α) was calculated as the ratio of Ki (Binary)/ Ki (Ternary), with α > 1 indicating positive cooperativity between NSD2 PWWP1 and FBXO22 FIST based on its disruption of NSD2 binding to UNC7096.

In the case of `O=C1COc2cc(C(=O)N(Cc3ccc(C(=O)Nc4ccc5c(c4)CCN(C(=O)CCCCC(O)S(=O)(=O)O)C5)cc3)C3CC3)ccc2N1` (stereo not drawn) [UNC10088], the “fold reduction of IC50 upon addition of FBXO22” value (IC50 alone vs with FBXO22 FIST) is “about 2.5 fold”. In addition, where the note is “NSD2 PWWP1 with vs without FBXO22 FIST, with preincubation”, the “cooperativity factor (α) = Ki (Binary)/Ki (Ternary)” value was determined as 3.3. Also, for the setting “compound not preincubated with FBXO22”, the “cooperativity factor (α) without preincubation” value is 3.1.
